Earlier results in patent publication US20120009644A1, “Tissue Implants for Implantation and Methods for Preparing the Same” (CRYOLIFE, INC., priority 2010, published 2012).

Tested on: sensitive bacteria
Conditions: literature review

SMILES: NCC[C@H](O)C(=O)N[C@@H]1C[C@H](N)[C@@H](O[C@H]2O[C@H](CN)[C@@H](O)[C@H](O)[C@H]2O)[C@H](O)[C@H]1O[C@H]1O[C@H](CO)[C@@H](O)[C@H](N)[C@H]1O [amikacin]
- minimum inhibitory concentration against sensitive bacteria (MIC) range: 0.125 to 32 µg/mL
